Data published in patent US9204640B2, “2-acyloxy-pyrrolin-4-ones” (BAYER INTELLECTUAL PROPERTY GMBH, priority 2011, dated 2015).

Assays:
Assay type in all cases: in vivo
Myzus persicae [1] = assay: Myzus persicae test (MYZUPE Tau), leaf dipping; details: Myzus persicae, foliar, 144 h, 6dat
Description: Myzus Persicae Test (MYZUPE Tau) To produce a suitable preparation of active compound, 1 part by weight of active compound is mixed with the stated amount of solvent and emulsifier, and the concentrate is diluted with emulsifier-containing water to the desired concentration. Cabbage leaves (Brassica oleracea) which are heavily infested by the green peach aphid (Myzus persicae) are treated by dipping into the active compound preparation of the desired concentration. After the desired period of time, the kill in % is determined. 100% means that all of the aphids have been killed; 0% means that none of the aphids have been killed.

Myzus persicae [2] = assay: Myzus persicae test; hydroponic treatment (MYZUPE Sys); details: Myzus persicae, 144 h, 6dat
Description: Myzus Persicae Test; Hydroponic Treatment (MYZUPE Sys)
To produce a suitable preparation of active compound, 1 part by weight of active compound is mixed with the stated amounts of solvent and emulsifier, and the concentrate is diluted with water to the desired concentration.
The active compound preparation is mixed with water. The stated concentration refers to the amount of active compound per volume unit of water (mg/l=ppm). The treated water is filled into vessels containing a pea plant (Pisum sativum), and the plant is the infested with the green peach aphid (Myzus persicae).
After the desired period of time, the kill in % is determined 100% means that all of the aphids have been killed; 0% means that none of the aphids have been killed.

Setaria viridis = assay: Herbicidal pre-emergence action, SETVI; details: Setaria viridis, pre-emergence, 20 g/ha
Excerpt: 1. Herbicidal Pre-Emergence Action
• Seeds of monocotyledonous and dicotyledonous weed plants and crop plants are placed in wood-fiber pots in sandy loam and covered with soil. The test compounds, formulated in the form of wettable powders (WP), are then, as an aqueous suspension with a water application rate of 600 l/ha (converted), with 0.2% of wetting agent added, applied at various dosages to the surface of the covering soil. • After the treatment, the pots are placed in a greenhouse and kept under good growth conditions for the test plants. The visual assessment of the damage to the test plants is carried out after a trial period of about 3 weeks by comparison with untreated controls (herbicidal activity in percent: 100% activity=the plants have died, 0% activity=like control plants). • In addition to the compounds mentioned above, the following compounds show an activity of 90-100% against Alopecurus myosuroides, Digitaria sanguinalis, Echinocloa crus-galli, Lolium multiflorum, Setaria viridis and Sorghum halapense when applied by the pre-emergence method at 320 g/ha of a.i.: I-a-2, I-a-10, I-a-11, I-a-12.
1. Herbicidal Pre-Emergence Action (Pre)
(§1) • Seeds of monocotyledonous and dicotyledonous weed plants and crop plants are placed in wood-fiber pots in sandy loam and covered with soil. The test compounds, formulated in the form of wettable powders (WP) or emulsion concentrates (EC), are then, as an aqueous suspension with a water application rate of 600-800 l/ha (converted), with 0.1-0.2% of wetting agent added, applied at various dosages to the surface of the covering soil. • After the treatment, the pots are placed in a greenhouse and kept under good growth conditions for the test plants. […] Herbicidal Post-Emergence Action (Post) • Seeds of monocotyledonous and dicotyledonous weed and crop plants are placed in sandy loam in wood-fiber pots, covered with soil and cultivated in a greenhouse under good growth conditions. 2-3 weeks (stages 10-13 according to the BBCH scale) after sowing, the test plants are treated at a height of 5-10 cm. The test compounds, formulated as wettable powders (WP) or emulsion concentrates (EC), are then, with a water application rate of 600-800 l/ha (converted), with 0.1-0.2% of wetting agent added, sprayed at various dosages onto the green parts of the plants.
(§2) AVEFA: Avena fatua LOLMU: Lolium multiflorum SETVI: Setaria viridis CHEAL: Chenopodium album VIOTR: Viola tricolor VERPE: Veronica persica ORYSA: Oryza sativa TRZAS: Triticum aestivum ZEAMX: Zea mays ALOMY: Alopecurus myosuroides DIGSA: Digitaria sanguinalis ECHCG: Echinocloa crus-galli SORHA: Sorghum halepense AVESA: Avena sativa AMARE: Amaranthus retroflexus SINAL: Sinapis alba STEME: Stellaria media

Alopecurus myosuroides = assay: Herbicidal post-emergence action, ALOMY; details: Alopecurus myosuroides, post-emergence, 20 g/ha
Description: (§3) 2. Herbicidal Post-Emergence Action
(§4) • Seeds of monocotyledonous and dicotyledonous weed and crop plants are placed in sandy loam in wood-fiber pots, covered with soil and cultivated in a greenhouse under good growth conditions. 2 to 3 weeks after sowing, the test plants are treated at the one-leaf stage. The test compounds, formulated as wettable powders (WP), are then, with a water application rate of 600 l/ha (converted), with 0.2% of wetting agent added, sprayed at various dosages onto the green parts of the plants. After the test plants have been kept in the greenhouse under optimum growth conditions for about 3 weeks, the activity of the preparations is rated visually in comparison to untreated controls (herbicidal activity in percent: 100% activity=the plants have died, 0% activity=like control plants). • In addition to the compounds mentioned above, the following compounds show an activity of 90-100% against Alopecurus myosuroides, Avena fatua, Digitaria sanguinalis, Echinocloa crus-galli, Lolium multiflorum, Setaria viridis and Sorghum halapense when applied by the post-emergence method at 320 g/ha: I-a-2, I-a-4, I-a-5, I-a-7, I-a-9, I-a-10, I-a-11, I-a-12, I-a-13, I-a-15. • In addition to the compounds mentioned above, the following compounds show an activity of 90-100% against Alopecurus myosuroides, Avena fatua, Echinocloa crus-galli, Lolium multiflorum and Setaria viridis when applied by the post-emergence method at 80 g/ha: I-a-1, I-b-2.
as §1, §2

Digitaria sanguinalis = assay: Herbicidal post-emergence action, DIGSA; details: Digitaria sanguinalis, post-emergence, 20 g/ha
Description: as §3, §4, §1, §2

Echinocloa crus-galli = assay: Herbicidal post-emergence action, ECHCG; details: Echinochloa crus-galli, post-emergence, 20 g/ha
Description: as §3, §4, §1, §2

Phaedon cochleariae = assay: Phaedon test (PHAECO spray treatment); details: application rate 500 g/ha, after 7 days, Chinese cabbage leaf discs
Description: Phaedon Test ([…] Spray Treatment) [table] To produce a suitable preparation of active compound, 1 part by weight of active compound is mixed with the stated amount of solvent and emulsifier, and the concentrate is diluted with emulsifier-containing water to the desired concentration. Discs of Chinese cabbage (Brassica pekinensis) are sprayed with an active compound preparation of the desired concentration and, after drying, populated with larvae of the mustard beetle (Phaedon cochleariae). After 7 days, the effect in % is determined 100% means that all beetle larvae have been killed; 0% means that none of the beetle larvae have been killed. Phaedon Test ([…] Spray Treatment) To produce a suitable preparation of active compound, 1 part by weight of active compound is mixed with the stated amount of solvent and emulsifier, and the concentrate is diluted with emulsifier-containing water to the desired concentration. Discs of Chinese cabbage (Brassica pekinensis) are sprayed with an active compound preparation of the desired concentration and, after drying, populated with larvae of the mustard beetle (Phaedon cochleariae). After the desired period of time, the activity in % is determined. 100% means that all beetle larvae have been killed; 0% means that none of the beetle larvae have been killed.

Spodoptera frugiperda = Spodoptera frugiperda test (SPODFR spray treatment); details: application rate 500 g/ha, after 7 days, corn leaf discs
Description: Spodoptera Frugiperda Test (SPODFR Spray Treatment) [table] To produce a suitable preparation of active compound, 1 part by weight of active compound is mixed with the stated amount of solvent and emulsifier, and the concentrate is diluted with emulsifier-containing water to the desired concentration. Discs of corn leaves (Zea mays) are sprayed with an active compound preparation of the desired concentration and, after drying, populated with caterpillars of the armyworm (Spodoptera frugiperda). After 7 days, the effect in % is determined. 100% means that all caterpillars have been killed; 0% means that none of the caterpillars have been killed. Spodoptera Frugiperda Test (SPODFR Spray Treatment) To produce a suitable preparation of active compound, 1 part by weight of active compound is mixed with the stated amount of solvent and emulsifier, and the concentrate is diluted with emulsifier-containing water to the desired concentration. Discs of corn leaves (Zea mays) are sprayed with an active compound preparation of the desired concentration and, after drying, populated with caterpillars of the armyworm (Spodoptera frugiperda). After the desired period of time, the activity in % is determined. 100% means that all caterpillars have been killed; 0% means that none of the caterpillars have been killed.

Myzus persicae [3] = assay: Myzus test (MYZUPE spray treatment); details: application rate 500 g/ha, after 5 days, Chinese cabbage leaf discs
Description: Myzus Test (MYZUPE Spray Treatment) [table] To produce a suitable preparation of active compound, 1 part by weight of active compound is mixed with the stated amount of solvent and emulsifier, and the concentrate is diluted with emulsifier-containing water to the desired concentration. Discs of Chinese cabbage (Brassica pekinensis) infected by all stages of the green peach aphid (Myzus persicae) are sprayed with an active compound preparation of the desired concentration. After 5 days, the effect in % is determined 100% means that all of the aphids have been killed; 0% means that none of the aphids have been killed. Myzus Test (MYZUPE Spray Treatment) To produce a suitable preparation of active compound, 1 part by weight of active compound is mixed with the stated amount of solvent and emulsifier, and the concentrate is diluted with emulsifier-containing water to the desired concentration. Discs of Chinese cabbage (Brassica pekinensis) infected by all stages of the green peach aphid (Myzus persicae) are sprayed with an active compound preparation of the desired concentration. After the desired period of time, the activity in % is determined. 100% means that all of the aphids have been killed; 0% means that none of the aphids have been killed.

Meloidogyne incognita = Meloidogyne incognita test (MELGIN); details: 20 ppm, after 14 days, lettuce roots
Description: Meloidogyne Incognita Test (MELGIN) [table] To prepare a suitable active compound preparation, 1 part by weight of active compound is mixed with the stated amounts of solvent and the concentrate is diluted with water to the desired concentration. Containers are filled with sand, solution of active compound, Meloidogyne incognita egg/larvae suspension and lettuce seeds. The lettuce seeds germinate and the plants develop. On the roots, galls are formed. After 14 days, the nematicidal effect in % is determined by the formation of galls. 100% means that no galls have been found; 0% means that the number of galls on the treated plants corresponds to the untreated control.

Nilaparvata lugens = Nilaparvata lugens test (NILALU hydroponic treatment); details: 20 ppm, after 7 days
Description: Nilaparvata Lugens Test ([…] Hydroponic Treatment) To produce a suitable preparation of active compound, 1 part by weight of active compound is mixed with the stated amount of solvent and emulsifier, and the concentrate is diluted with emulsifier-containing water to the desired concentration. The active compound preparation is pipetted into water. The stated concentration refers to the amount of active compound per volume unit of water (mg/l=ppm), the sample is then infected with the brown planthopper (Nilaparvata lugens). After 7 days, the effect in % is determined 100% means that all of the planthoppers have been killed; 0% means that none of the planthoppers have been killed.

| Compound | inhibition at 20 ppm (Myzus persicae [1]) [%] | inhibition at 20 ppm (Myzus persicae [2]) [%] | inhibition at 20 g/ha (Setaria viridis) [%] | inhibition at 20 g/ha (Alopecurus myosuroides) [%] | inhibition at 20 g/ha (Digitaria sanguinalis) [%] | inhibition at 20 g/ha (Echinocloa crus-galli) [%] | effect in % (beetle larvae killed) (Phaedon cochleariae) [%] | effect in % (caterpillars killed) (Spodoptera frugiperda) [%] | effect in % (aphids killed) (Myzus persicae [3]) [%] | nematicidal effect in % (formation of galls) (Meloidogyne incognita) [%] | effect in % (planthoppers killed) (Nilaparvata lugens) [%] |
| --- | --- | --- | --- | --- | --- | --- | --- | --- | --- | --- | --- |
| CCOC(=O)OC1=C(c2c(C)cc(I)cc2CC)C(=O)NC12CCC(OC)CC2 (stereo not shown) [I-1-c-1 known from WO 06/029799] | 50 | 60 | 20 | 30 | 30 | 30 | – | – | – | – | – |
| COc1cc(C)cc(C)c1C1=C(OC(=O)C(C)(C)C)NC2(CCC(OC)CC2)C1=O (stereo not shown) [I-a-2] | – | – | – | – | – | – | 100 | 100 | 100 | 100 | – |
| CCc1cc(C)cc(Br)c1C1=C(OC(=O)C(C)(C)C)NC(C)(C)C1=O [I-a-13] | – | – | – | – | – | – | 83 | – | 80 | – | 100 |
